Measured values reported in paper PMC10135574, “N-Carbamoylputrescine Amidohydrolase of Bacteroides thetaiotaomicron, a Dominant Species of the Human Gut Microbiota” (Biomedicines, 2023).

target: T1, NCPAH-(His)6; N-carbamoylputrescine amidohydrolase (NCPAH) (Bacteroides thetaiotaomicron, UniProt Q8A9E0); assay: HPLC of putrescine formed; assay type: biochemical; conditions: read-out: % inhibition at 1 mM
T1 construct: gene BT_0875; full-length, C-terminal His6 tag kept (pET23b NdeI/XhoI, plasmid pMSK106), expressed in E. coli BL21(DE3)
T1 sequence (Q8A9E0 1-294): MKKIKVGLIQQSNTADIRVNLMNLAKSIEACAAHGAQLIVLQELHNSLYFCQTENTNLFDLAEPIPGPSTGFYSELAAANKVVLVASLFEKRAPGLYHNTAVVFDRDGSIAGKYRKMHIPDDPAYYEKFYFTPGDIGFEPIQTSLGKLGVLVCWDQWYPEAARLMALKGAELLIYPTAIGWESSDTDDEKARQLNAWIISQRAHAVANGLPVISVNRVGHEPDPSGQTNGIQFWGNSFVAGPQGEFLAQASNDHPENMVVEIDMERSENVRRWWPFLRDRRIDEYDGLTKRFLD

SMILES	inhibition at 1000 µM [%]
N=C(N)NCCCCN [agmatine]	> 80
NCCCCNCCCN [spermidine]	> 80
NCCCCN [putrescine]	~50
